According to patent US20240122926A1, “APELIN RECEPTOR MODULATORS FOR TREATING MUSCLE CONDITIONS” (priority 2022, published 2024):
Entries after “also recorded” stand apart in the source; their conditions may differ.

Tests used:
[1] = tested on: healthy volunteers aged ≥65 years; test: Phase 1b bed rest study, ultrasound muscle quality grade (echo density); type: in vivo, human
Description: (§1) One day before (baseline, D-1) and 5 (D5) and 10 (D10) days after initiation of bed rest, key muscle atrophy endpoints were measured: thigh circumference; cross-sectional area (CSA) and A-P diameter of vastus lateralis (ultrasound); ultrasound muscle quality grade, an index that quantifies fatty degeneration in muscle (ultrasound echo density); and muscle protein synthesis rate (biopsy). Parameters measured during the 10-day bed rest period include thigh circumference, muscle size, muscle quality (e.g., fatty degeneration), and muscle protein synthetic rate.
The echo density measurements showing the number of patients receiving an ultrasound muscle quality grading scale using a numerical grading system of grade 1 or a grade 2 classifying fatty muscle atrophy by measuring fatty infiltration of the muscle fibers of a biopsy from the patient. […] Open box represents normal muscle (grade 1), and striped box represents muscle that contains some fatty streaks (grade 2). […] (p=0.0019).

[2] = 14-day IV study in rat (toxicology exposure); type: in vivo
Description: (§2) The updated exposure margins considering the highest maximum exposures in rats and dogs are calculated as follows: maximum exposure in the rat (male) was in the 14-day IV study and at the 300 mg/kg dose, the AUClast is 1070 μg*hr/mL; maximum exposure in dogs occurred at the 300 mg/kg dose in the 9-month oral toxicity study and the AUClast is 1310*μg·hr/mL.

[3] = 9-month oral toxicity study in dogs; type: in vivo, dog
Description: as §2

[4] = tested on: healthy volunteers aged ≥65 years; test: Phase 1b bed rest study, safety (TEAEs); type: in vivo
Description: Adverse events are coded using the Medical Dictionary for Regulatory Activities. The number of events, incidence, and percentage of TEAEs are calculated overall by system organ class, preferred term, and treatment group for each cohort and treatment group. The number and percentage of subjects with TEAEs are further summarized by severity and relationship to study drug. AEs related to study drug, AEs leading to withdrawal, SAEs, and deaths are also similarly summarized and/or listed in a similar manner.

[5] = tested on: healthy volunteers aged ≥65 years; test: Phase 1b bed rest study Part B (MD), limb circumference and ultrasound muscle dimensions; type: in vivo, human
Description: In each of the 3 cohorts in Part B, 30 total subjects are enrolled to receive treatment in either Cohort 1A, Cohort 1B, or Cohort 1C. Cohort 1A includes 10 subjects who all receive placebo NS over a 1 hour infusion for 10 days on Days 1 through Day 10. […] Patients are at bed rest for the entire 10-day duration of treatment.
Ultrasound images were collected during the following study visits: Day −1 (baseline), Day 6 (pre-dose), and day 11 (end of treatment). Ultrasounds were performed of both the vastus lateralis and gastroenemius to measure cross-sectional area, color flow doppler, antero-posterior (AP) diameter, and echo density. Muscle circumference was also measured. Ultrasound imaging was conducted by the same operator throughout the study for all subjects. Ultrasound readings were done by the same reader throughout the study for all subjects. […] The leg measured (right vs. left) and leg location (medial vs. lateral) remained consistent for all ultrasounds.
Muscle circumference was measured in centimeters (cm) using a measuring tape and recorded on the ultrasound worksheet at the time of imaging.
The ultrasound images were collected before conducting the skeletal muscle micro-biopsy. Prior to testing, subjects were instructed to wear shorts on testing day to avoid compression of the upper leg musculature and to expose the upper portion of the thigh. Subjects were required to lay supine on an examination table with both legs fully extended for a minimum of 5 minutes to allow for fluid shifts to occur. Each subject was instructed to lay on their non-dominant side to obtain skeletal muscle ultrasound images of the vastus lateralis and gastrocnemius in the dominant leg. Subjects were positioned with their legs on top of one another and slightly bent at the knee. Ultrasound images of the vastus lateralis will be captured at 50% of the straight-line distance from the greater trochanter and the lateral epicondyle of the femur.
To ensure proper probe placement and consistent image capture location, a dotted line was drawn transversely and longitudinally along the surface of the skin from the aforementioned location. All measures of muscle morphology were obtained using a B-mode, 12-MHz linear probe US (General Electric vivid E9) to provide acoustic contact without depressing the dermal layer of the skin. Longitudinal B-mode and transverse field of view (FOV) images were acquired during each exam and analyzed. Ultrasound settings remained fixed for examination of each subject: image gain was set at 50 decibels (dB), dynamic range was set at 72, and image depth was set at 5 cm. Three panoramic transverse images (PTI) were captured in the transverse plane, perpendicular to the long axis of the muscle. These images utilized the extended-field-of-view ultrasonography in order to include entire area of the vastus lateralis in a single panoramic image.
Additionally, three single longitudinal images (SLI) were captured in the longitudinal plane, parallel to the long axis of the muscle. […] This same technique was applied to ultrasound of the gastrocnemius. Either the medial head or lateral head of the gastrocnemius was used for ultrasound evaluation, but not both. The same head was used for all gastrocnemius ultrasounds throughout the study.
as §1

[6] = 240 mg IV once daily, 10 days bed rest

## COc1cccc(OC)c1-n1c(NS(=O)(=O)[C@@H](C)[C@H](C)c2ncc(C)cn2)nnc1-c1cncc(C)c1 [BGE-105, (2S,3R)—N-(4-(2,6-dimethoxyphenyl)-5-(5-methyl-3-pyridinyl)-4H-1,2,4-triazol-3-yl)-3-(5-methyl-2-pyrimidinyl)-2-butanesulfonamide]
[1]; 240 mg daily (cohort MD 1B), 10-day bed rest
  Muscle grade (progression), number of subjects out of 11: 1
[1]; after 10 days of bed rest (placebo 8 of 10)
  number of patients (out of 11) moving to / worsening to ultrasound muscle quality grade 2: 1
[2]; 240 mg loading dose + 1440 mg IV for 22 hours, 1036/1070
  predicted human exposure margin Human:Rat: 0.97
[2]; in vivo, rat (male), 14-day IV study, 300 mg/kg, read-out: AUClast, maximum exposure
  AUC(0-t): 1070 µg·h/mL
[2]; rat
  NOAEL: maximum dose tested
[3]; 240 mg loading dose + 1440 mg IV for 22 hours, 1036/1310
  predicted human exposure margin Human:Dog: 0.79
[3]; dog
  NOAEL: maximum dose tested
[3]; dog, in vivo, dogs, 9-month oral toxicity study, 300 mg/kg, read-out: AUClast, maximum exposure
  AUC(0-t): 1310 µg·h/mL
[4]; Cohort 1B
  number of volunteers (out of 11) exhibiting TEAEs: 7
  percent of volunteers exhibiting TEAEs: 64%
[4]; Phase 1b bed rest study
  serious / severe adverse effects: no serious adverse effects; also recorded: no severe adverse effects
  tolerability: well tolerated
[5]; [6]
  reduction in loss of vastus lateralis cross-sectional area vs placebo: > 50%
  reduction in loss of vastus lateralis muscle thickness vs placebo: 75%
[5]; 10 days of bed rest (placebo 10.982%)
  decrease in gastrocnemius diameter, mean percent change from baseline: 2.942
[5]; 10 days of bed rest (placebo 15.72%)
  decrease in gastrocnemius cross-sectional area, mean percent change from baseline: 7.758%
[5]; Cohort 1B vs Cohort 1A
  improvement in muscle dimension vs placebo: ~75%
[5]; female subjects (placebo 5.486%)
  decrease in calf circumference: 1.166%
[5]; female subjects (placebo 6.06%)
  decrease in thigh circumference: 1.674%
[5]; female subjects (placebo 15.32%)
  decrease in gastrocnemius cross sectional area: 5.558%
[5]; female subjects (placebo 23.67%)
  decrease in vastus lateralis cross sectional area: 9.676%
[5]; healthy volunteer bed rest study
  reduction in muscle loss from disuse atrophy: up to 75%
[5]; older patients, BGE-105 treated group (placebo 6.438% reduction)
  increase in thigh circumference after 10-day bed rest: 0.8%
[5]; over 10 days of bed rest
  number of subjects (out of 11) with fully preserved or increased thigh circumference: 7
  percent of subjects with fully preserved or increased thigh circumference: 64%
[5]; treatment group (Cohort 1B) (placebo 21%)
  decrease in muscle size measured by ultrasound: 5.664%
